From patent US12655116B2, “Substituted isophthalic acid diamides” (Bayer Aktiengesellschaft, priority 2020, dated 2026)

What was measured:
ABUTH [1] = experiment: Pre-emergence herbicidal action against ABUTH; assay type: in vivo, Abutilon theophrasti; details: Abutilon theophrasti, 504 h, 80 g/ha, scored visually after 3 weeks vs untreated controls (100% = plants have died, 0% = like control plants)
How it was run: (§1)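 Pre-emergence soil-surface spray of formulated compound (WP or EC; 600 to 800 l/ha; 0.2% wetting agent) over seeds sown in sandy loam. After 3 weeks under greenhouse conditions, damage is estimated visually in percent against untreated plants.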

ALOMY = experiment: Pre-emergence herbicidal action against ALOMY; assay type: in vivo, Alopecurus myosuroides; details: Alopecurus myosuroides, 504 h; 80 g/ha, pre-emergence, scored visually after 3 weeks vs untreated controls (100% = plants have died, 0% = like control plants)
How it was run: as §1

AMARE [2] = experiment: Pre-emergence herbicidal action against AMARE; assay type: in vivo, Amaranthus retroflexus; details: Amaranthus retroflexus, 504 h, scored visually after 3 weeks vs untreated controls, 100% = plants have died, 0% = like control plants
How it was run: as §1

AVEFA = experiment: Pre-emergence herbicidal action against AVEFA; assay type: in vivo, Avena fatua; details: Avena fatua, 504 h; 80 g/ha, pre-emergence
How it was run: as §1

ECHCG [3] = experiment: Pre-emergence herbicidal action against ECHCG; assay type: in vivo, Echinochloa crus-galli; details: Echinochloa crus-galli, 504 h, 80 g/ha
How it was run: as §1

MATIN [4] = experiment: Pre-emergence herbicidal action against MATIN; assay type: in vivo, Matricaria inodora; details: Tripleurospermum inodorum, 504 h
How it was run: as §1

PHBPU [5] = experiment: Pre-emergence herbicidal action against PHBPU; assay type: in vivo, Pharbitis purpurea; details: Ipomoea purpurea, 504 h
How it was run: as §1

POLCO = experiment: Pre-emergence herbicidal action against POLCO; assay type: in vivo, Polygonum convolvulus; details: Fallopia convolvulus, 504 h, dosage 80 g/ha
How it was run: as §1

SETVI [6] = experiment: Pre-emergence herbicidal action against SETVI; assay type: in vivo, Setaria viridis; details: Setaria viridis, 504 h
How it was run: as §1

VERPE [7] = experiment: Pre-emergence herbicidal action against VERPE; assay type: in vivo, Veronica persica; details: Veronica persica, 504 h, dosage 80 g/ha
How it was run: as §1

VIOTR [8] = experiment: Pre-emergence herbicidal action against VIOTR; assay type: in vivo, Viola tricolor; details: Viola tricolor, 504 h
How it was run: as §1

DIGSA [9] = experiment: Pre-emergence herbicidal action against DIGSA; assay type: in vivo, Digitaria sanguinalis; details: Digitaria sanguinalis, 504 h, dosage 80 g/ha
How it was run: as §1

ABUTH [10] = experiment: Post-emergence herbicidal action against ABUTH; assay type: in vivo, Abutilon theophrasti; details: Abutilon theophrasti, 504 h, visual assessment about 3 weeks after treatment vs untreated controls
How it was run: (§2)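 Greenhouse plants in sandy loam were sprayed at the one-leaf stage, 2 to 3 weeks after sowing, with WP or EC formulations as aqueous suspension or emulsion (600 to 800 l/ha water, 0.2% wetting agent). Visual damage was scored about 3 weeks later versus untreated controls, 0% = like control, 100% = dead.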

AMARE [11] = experiment: Post-emergence herbicidal action against AMARE; assay type: in vivo, Amaranthus retroflexus; details: Amaranthus retroflexus, 504 h, 20 g/ha, visual assessment about 3 weeks after treatment, 100% = plants have died, 0% = like control plants
How it was run: as §2

ECHCG [12] = experiment: Post-emergence herbicidal action against ECHCG; assay type: in vivo, Echinochloa crus-galli; details: Echinochloa crus-galli, 504 h
How it was run: as §2

MATIN [13] = experiment: Post-emergence herbicidal action against MATIN; assay type: in vivo, Matricaria inodora; details: Tripleurospermum inodorum, 504 h, dosage 20 g/ha
How it was run: as §2

PHBPU [14] = experiment: Post-emergence herbicidal action against PHBPU; assay type: in vivo, Pharbitis purpurea; details: Ipomoea purpurea, 504 h, dosage 20 g/ha
How it was run: as §2

SETVI [15] = experiment: Post-emergence herbicidal action against SETVI; assay type: in vivo, Setaria viridis; details: Setaria viridis, 504 h
How it was run: as §2

VERPE [16] = experiment: Post-emergence herbicidal action against VERPE; assay type: in vivo, Veronica persica; details: Veronica persica, 504 h, 20 g/ha
How it was run: as §2

VIOTR [17] = experiment: Post-emergence herbicidal action against VIOTR; assay type: in vivo, Viola tricolor; details: Viola tricolor, 504 h
How it was run: as §2

DIGSA [18] = experiment: Post-emergence herbicidal action against DIGSA; assay type: in vivo, Digitaria sanguinalis; details: Digitaria sanguinalis, 504 h
How it was run: as §2

Work on `CNC(=O)c1c(C(F)(F)F)ccc(C(=O)Nc2nnnn2C)c1OC` [Example 1-56] yielded a pest or weed control at 80 g/ha (ABUTH [1]) of 90%, a pest or weed control at 80 g/ha (ALOMY) of 90% and a pest or weed control at 20 g/ha (AMARE [2]; 20 g/ha) of 100%. It also gave a pest or weed control at 80 g/ha (AMARE [2]; 80 g/ha) of 100%, a pest or weed control at 80 g/ha (AVEFA) of 80% and a pest or weed control at 80 g/ha (ECHCG [3]) of 90%. The pest or weed control at 20 g/ha (MATIN [4]; dosage 20 g/ha) was 90%, the pest or weed control at 80 g/ha (MATIN [4]; dosage 80 g/ha) was 90% and the pest or weed control at 20 g/ha (PHBPU [5]; dosage 20 g/ha) was 80%. The pest or weed control at 80 g/ha (PHBPU [5]; dosage 80 g/ha) was 80%, the pest or weed control at 80 g/ha (POLCO) was 90% and the pest or weed control at 20 g/ha (SETVI [6]; dosage 20 g/ha) was 90%. The pest or weed control at 80 g/ha (SETVI [6]; dosage 80 g/ha) was 100%, the pest or weed control at 80 g/ha (VERPE [7]) was 90% and the pest or weed control at 20 g/ha (VIOTR [8]; dosage 20 g/ha) was 100%. The pest or weed control at 80 g/ha (VIOTR [8]; dosage 80 g/ha) was 100%, the pest or weed control at 80 g/ha (DIGSA [9]) was 80% and the pest or weed control at 5 g/ha (ABUTH [10]; dosage 5 g/ha) was 80%. For the same compound, the pest or weed control at 20 g/ha (ABUTH [10]; dosage 20 g/ha) was 100%, the pest or weed control at 20 g/ha (AMARE [11]) was 100% and the pest or weed control at 5 g/ha (ECHCG [12]; dosage 5 g/ha) was 80%. For the same compound, the pest or weed control at 20 g/ha (ECHCG [12]; dosage 20 g/ha) was 90%, the pest or weed control at 20 g/ha (MATIN [13]) was 90% and the pest or weed control at 20 g/ha (PHBPU [14]) was 80%. The pest or weed control at 5 g/ha (SETVI [15]; dosage 5 g/ha) was 100%, the pest or weed control at 20 g/ha (SETVI [15]; dosage 20 g/ha) was 100% and the pest or weed control at 20 g/ha (VERPE [16]) was 90%. It also gave a pest or weed control at 5 g/ha (VIOTR [17]; 5 g/ha) of 100%, a pest or weed control at 20 g/ha (VIOTR [17]; 20 g/ha) of 100% and a pest or weed control at 5 g/ha (DIGSA [18]; 5 g/ha) of 90%. The pest or weed control at 20 g/ha (DIGSA [18]; 20 g/ha) was 100%.
